The values below are quoted from earlier work in paper PMC5863612 (Chemical Science, 2017).

This series deals with βPGM. The note with it: for Km: previously recorded result.

As to `O=P(O)(O)O[C@@H]1O[C@H](CO)[C@@H](O)[C@H](O)[C@H]1O` [βG1P, β-D-glucose 1-phosphate], the Km is 14.7 µM.
With `O=P(O)(O)OC[C@H]1O[C@@H](OP(=O)(O)O)[C@H](O)[C@@H](O)[C@@H]1O` [βG16BP, β-glucose-1,6-bisphosphate], the Km was 0.72 ± 0.04 µM.
Regarding fluorine, the “Inhibition of βPGM (reported range)” value was “low millimolar range”.
